In assay [1] the target is RBP4 (Homo sapiens (Human), UniProt P02753). As to the kind of experiment: Scintillation proximity (SPA) RBP4 binding assay. To be noted: 10 nM 3H-Retinol, 50 nM biotinylated RBP4. The procedure: Scintillation Proximity RBP4 Binding Assay
Untagged human RBP4 purified from urine of tubular proteinuria patients was purchased from Fitzgerald Industries International. It was biotinylated using the EZ-Link Sulfo-NHS-LC-Biotinylation kit from Pierce following the manufacturer's recommendations. Binding experiments were performed in 96-well plates (OptiPlate, PerkinElmer) in a final assay volume of 100 μl per well in SPA buffer (IX PBS, pH 7.4, 1 mM EDTA, 0.1% BSA, 0.5% CHAPS). The reaction mix contained 10 nM ^3H-Retinol (48.7 Ci/mmol; PerkinElmer), 0.3 mg/well Streptavidin-PVT beads, 50 nM biotinylated RBP4 and a test compound. Nonspecific binding was determined in the presence of 20 μM of unlabeled retinol. The reaction mix was assembled in the dark under dim red light. The plates were sealed with clear tape (TopSeal-A: 96-well microplate, PerkinElmer), wrapped in the aluminum foil, and allowed to equilibrate 6 hours at room temperature followed by overnight incubation at +4° C. Radiocounts were measured using a TopCount NXT counter (Packard Instrument Company).
A general note: Scintillation proximity formats need no separation of bound from free tracer.

Assay [2] addresses RBP4-TTR interaction (Homo sapiens (Human), UniProt P02753). As to the kind of experiment: TR-FRET (HTRF) assay for retinol-induced RBP4-TTR interaction. The conditions noted are these: in the presence of 1 μM retinol; read-out: HTRF assay for antagonists of RBP4-TTR interaction: IC50. The class given is biochemical. An excerpt: TR-FRET assay for retinol-induced RBP4-TTR interaction Binding of a desired RBP4 antagonist displaces retinol and induces hindrance for RBP4-TTR interaction resulting in the decreased FRET signal (FIG. 7). Bacterially expressed MBP-RBP4 and untagged TTR were used in this assay. […] Following cell lysis, recombinant RBP4 was purified from the soluble fraction using the ACTA FPLC system (GE Healthcare) equipped with the 5-ml the MBP Trap HP column. Human untagged TTR was purchased from Calbiochem. Untagged TTR was labeled directly with Eu^3+ Cryptate-NHS using the HTRF Cryptate Labeling kit from CisBio following the manufacturer's recommendations. HTRF assay was performed in white low volume 384 well plates (Greiner-Bio) in a final assay volume of 16 μl per well. The reaction buffer contained 10 mM Tris-HCl pH 7.5, 1 mM DTT, 0.05% NP-40, 0.05% Prionex, 6% glycerol, and 400 mM KF. […] Titration of test compounds in this assay was conducted in the presence of 1 μM retinol. All reactions were assembled in the dark under dim red light and incubated overnight at +4° C. wrapped in aluminum foil. TR-FRET signal was measured in the SpectraMax M5e Multimode Plate Reader (Molecular Device). […] The TR-FRET signal was expressed as the ratio of fluorescence intensity: Flu665/Flu620×10,000.
On the technique in general: Time-resolved FRET reads energy transfer from a long-lived donor to a nearby acceptor.

As a reminder, the IC50 is the midpoint of a concentration-inhibition curve.

Structures are written as SMILES.

With `CC(C)C(=O)N1Cc2[nH]nc(C(=O)N3CCC(c4ccc(F)c(F)c4C(F)(F)F)CC3)c2C1` [Compound 85, 1-(3-(4-(3,4-difluoro-2-(trifluoromethyl)phenyl)piperidine-1-carbonyl)pyrrolo[3,4-c]pyrazol 5(1H,4H,6H)-yl)-2-methylpropan-1-one], the IC50 was 17.9 nM in assay [1] and 22.4 nM in assay [2].
As for `CC(C)CC(=O)N1Cc2[nH]nc(C(=O)N3CCC(c4ccc(F)c(F)c4C(F)(F)F)CC3)c2C1` [Compound 86, 1-(3-(4-(3,4-difluoro-2-(trifluoromethyl)phenyl)piperidine-1-carbonyl)pyrrolo[3,4-c]pyrazol-5(1H, 4H, 6H)-yl)-3-methylbutan-1-one], the values for the IC50 in assay [1] and in assay [2] were 19.3 nM and 27.8 nM, respectively.
As for `O=C(c1n[nH]c2c1CN(C1COC1)CC2)N1CCC(c2ccc(F)c(F)c2C(F)(F)F)CC1` [Compound 89, (4-(3,4-difluoro-2-(trifluoromethyl)phenyl)piperidin-1-yl)(5-(oxetan-3-yl)-4,5,6,7-tetrahydro-1H-pyrazolo[4,3-c]pyridin-3-yl)methanone], the IC50 came to 8.84 nM in assay [1] and 33 nM in assay [2].
In the case of `CC(C)(C)CN1CCc2[nH]nc(C(=O)N3CCC(c4ccc(F)c(F)c4C(F)(F)F)CC3)c2C1` [Compound 90, (4-(3,4-difluoro-2-(trifluoromethyl)phenyl)piperidin-1-yl)(5-neopentyl-4,5,6,7-tetrahydro-1H-pyrazolo[4,3-c]pyridin-3-yl)methanone methanone], the half-maximal inhibitory concentration (IC50) in assay [1] was 14.4 nM; in assay [2], 42.9 nM.
The corresponding values for `COC(=O)N1CCc2[nH]nc(C(=O)N3CCC(c4ccc(F)c(F)c4C(F)(F)F)CC3)c2C1` [Compound 91, methyl 3-(4-(3,4-difluoro-2-(trifluoromethyl)phenyl)piperidine-1-carbonyl)-6,7-dihydro-1H-pyrazolo[4,3-c]pyridine-5(4H)-carboxylate] are 7.06 nM and 57.7 nM.
Taken in the same sequence, the figures for `CNC(=O)N1CCc2[nH]nc(C(=O)N3CCC(c4ccc(F)c(F)c4C(F)(F)F)CC3)c2C1` [Compound 92, 3-(4-(3,4-difluoro-2-(trifluoromethyl)phenyl)piperidine-1-carbonyl)-N-methyl-6,7-dihydro-1H-pyrazolo[4,3-c]pyridine-5(4H)-carboxamide] were 10.2 nM and 76.6 nM.
As for `O=C(c1n[nH]c2c1CN(CCC(F)(F)F)CC2)N1CCC(c2ccc(F)c(F)c2C(F)(F)F)CC1` [Compound 93, (4-(3,4-difluoro-2-(trifluoromethyl)phenyl)piperidin-1-yl)(5-(3,3,3-trifluoropropyl)-4,5,6,7-tetrahydro-1H-pyrazolo[4,3-c]pyridin-3-yl)methanone], the IC50 was found to be 8 nM in assay [1] and 33.6 nM in assay [2].
Take `COCCN1CCc2[nH]nc(C(=O)N3CCC(c4ccc(F)c(F)c4C(F)(F)F)CC3)c2C1` [Compound 94, (4-(3,4-difluoro-2-(trifluoromethyl)phenyl)piperidin-1-yl)(5-(2-methoxyethyl)-4,5,6,7-tetrahydro-1H-pyrazolo[4,3-c]pyridin-3-yl)methanone]: the figures for the IC50 in assay [1] and in assay [2] were 6.96 nM and 49.9 nM, respectively.
Taken in the same sequence, the figures for `N#CN1CCc2[nH]nc(C(=O)N3CCC(c4ccc(F)c(F)c4C(F)(F)F)CC3)c2C1` [Compound 95, 3-(4-(3,4-difluoro-2-(trifluoromethyl)phenyl)piperidine-1-carbonyl)-6,7-dihydro-1H-pyrazolo[4,3-c]pyridine-5(4H)-carbonitrile] were 7.78 nM and 27.8 nM.
Taken in the same sequence, the figures for `CCN1Cc2[nH]nc(C(=O)N3CCC(c4ccc(F)c(F)c4C(F)(F)F)CC3)c2C1` [Compound 96, (4-(3,4-difluoro-2(trifluoromethyl)phenyl)piperidin-1-yl)(5-ethyl-1,4,5,6-tetrahydropyrrolo[3,4-c]pyrazol-3-yl)methanone] were 12.7 nM and 26.5 nM.
On to `O=C(c1n[nH]c2c1CN(C1COC1)C2)N1CCC(c2ccc(F)c(F)c2C(F)(F)F)CC1` [Compound 98, (4-(3,4-difluoro-2-(trifluoromethyl)phenyl)piperidin-1-yl)(5-(oxetan-3-yl)-1,4,5,6-tetrahydropyrrolo[3,4-c]pyrazol-3-yl) methanone], for which the figures for the IC50 in assay [1] and in assay [2] were 11.8 nM and 74.1 nM, respectively.
In the case of `CNC(=O)N1Cc2[nH]nc(C(=O)N3CCC(c4ccc(F)c(F)c4C(F)(F)F)CC3)c2C1` [Compound 100, 3-(4-(3,4-difluoro-2-(trifluoromethyl)phenyl)piperidine-1-carbonyl)-N-methyl-4,6-dihydropyrrolo[3,4-c]pyrazole-5(1H)-carboxamide], the IC50 in assay [1] is 19.6 nM; in assay [2], 30.3 nM.
The corresponding values for `COC(=O)N1Cc2[nH]nc(C(=O)N3CCC(c4ccc(F)c(F)c4C(F)(F)F)CC3)c2C1` [Compound 101, methyl 3-(4-(3,4-difluoro-2-(trifluoromethyl)phenyl)piperidine-1-carbonyl)-4,6-dihydropyrrolo[3,4-c]pyrazole-5(1H)-carboxylate] are 7.44 nM and 14.1 nM.
With `O=C(c1ccccc1)N1Cc2[nH]nc(C(=O)N3CCC(c4ccc(F)c(F)c4C(F)(F)F)CC3)c2C1` [Compound 102, (5-benzoyl-1,4,5,6-tetrahydropyrrolo[3,4-c]pyrazol-3-yl)(4-(3,4-difluoro-2-(trifluoromethyl)phenyl)piperidin-1-yl)methanone], the IC50 in assay [1] came out at 21.7 nM; in assay [2], 27.6 nM.
The corresponding values for `O=C(c1cccnc1)N1Cc2[nH]nc(C(=O)N3CCC(c4ccc(F)c(F)c4C(F)(F)F)CC3)c2C1` [Compound 104, (4-(3,4-difluoro-2-(trifluoromethyl)phenyl)piperidin-1-yl)(5-nicotinoyl-1,4,5,6-tetrahydropyrrolo[3,4-c]pyrazol-3-yl)methanone] are 18.9 nM and 21.8 nM.
Consider `O=C(c1n[nH]c2c1CN(C(=O)N1CCCC1)C2)N1CCC(c2ccc(F)c(F)c2C(F)(F)F)CC1` [Compound 106, (4-(3,4-difluoro-2-(trifluoromethyl)phenyl)piperidin-1-yl)(5-(pyrrolidine-1-carbonyl)-1,4,5,6-tetrahydropyrrolo[3,4-c]pyrazol-3-yl)methanone], for which the IC50 in assay [1] was determined as 20.4 nM; in assay [2], 29.8 nM.
Take `O=C(c1n[nH]c2c1CN(CC(F)(F)F)C2)N1CCC(c2ccc(F)c(F)c2C(F)(F)F)CC1` [Compound 107]: the concentration for half-maximal inhibition (IC50) in assay [1] is 23.4 nM; in assay [2], 77 nM.
Taken in the same sequence, the figures for `O=C(c1n[nH]c2c1CN(CCC(F)(F)F)C2)N1CCC(c2ccc(F)c(F)c2C(F)(F)F)CC1` [Compound 108, (4-(3,4-difluoro-2(trifluoromethyl)phenyl)piperidin-1-yl)(5-(3,3,3-trifluoropropyl)-1,4,5,6-tetrahydropyrrolo[3,4-c]pyrazol-3-yl)methanone] were 25.2 nM and 49.5 nM.
The corresponding values for `COCCN1Cc2[nH]nc(C(=O)N3CCC(c4ccc(F)c(F)c4C(F)(F)F)CC3)c2C1` [Compound 109, (4-(3,4-difluoro-2(trifluoromethyl)phenyl)piperidin-1-yl)(5-(2-methoxyethyl)-1,4,5,6-tetrahydropyrrolo[3,4-c]pyrazol-3-yl)methanone] are 14.9 nM and 41.9 nM.

The record behind these values is US9434727B2, “Substituted 4-phenylpiperidines, their preparation and use” (THE TRUSTEES OF COLUMBIA UNIVERSITY IN THE CITY OF NEW YORK, priority 2014, dated 2016).
